According to US6472348B1, “Pyridone derivatives and herbicides” (Kumiai Chemical Industry Co., Ltd., priority 1996, dated 2002):

What was measured:
Type in all cases: in vivo
barnyardgrass (Ec) [1] = assay: Test Example 1: herbicidal effects by paddy field soil treatment; conditions: 100 g of the active ingredient per 10 ares, 21st day after the application, index 0-5 of Table 47;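 further: grade of growth control; 5 = at least 90%; 4 = 70 to 90%; 3 = 50 to 70%; 2 = 30 to 50%; 1 = 10 to 30%; 0 = under 10%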
Summary of the method: (§1)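 Scoring of herbicidal effect came 21 days after application of 100 g active ingredient per 10 ares to flooded (3 cm) paddy-soil pots sown with barnyardgrass, monochoria and bulrush, kept in a greenhouse.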

bulrush (Sc) = assay: as above; conditions: 100 g of the active ingredient per 10 ares, 21st day after the application, index 0-5 of Table 47;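 further: grade of growth control; 5 = at least 90%; 4 = 70 to 90%; 3 = 50 to 70%; 2 = 30 to 50%; 1 = 10 to 30%; 0 = under 10%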
Summary of the method: as §1

monochoria (Mo) = assay: as above; conditions: 100 g of the active ingredient per 10 ares, 21st day after the application, index 0-5 of Table 47;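 further: grade of growth control; 5 = at least 90%; 4 = 70 to 90%; 3 = 50 to 70%; 2 = 30 to 50%; 1 = 10 to 30%; 0 = under 10%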
Summary of the method: as §1

Digitaria ciliaris (Di) = assay: Test Example 2: herbicidal effects by upland field soil treatment; conditions: 100 g of the active ingredient per 10 ares;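 further: grade of growth control; 5 = at least 90%; 4 = 70 to 90%; 3 = 50 to 70%; 2 = 30 to 50%; 1 = 10 to 30%; 0 = under 10%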
From the text: (§2) (Test on Herbicidal Effects by Upland Field Soil Treatment)

barnyardgrass (Ec) [2] = assay: as above; conditions: 100 g of the active ingredient per 10 ares
From the text: as §2

[3] = tested on: common lambsquarters (Ch); assay: as above; conditions: 100 g of the active ingredient per 10 ares
From the text: as §2

pale smartweed (Po) [4] = assay: as above; conditions: 100 g of the active ingredient per 10 ares
From the text: as §2

rice flatsedge (Ci) [5] = assay: as above; conditions: 100 g of the active ingredient per 10 ares
From the text: as §2

slender amaranth (Am) [6] = assay: as above; conditions: 100 g of the active ingredient per 10 ares
From the text: as §2

Diaitaria ciliaris (Di) = assay: Test Example 3: herbicidal effects by upland field foliage treatment; set-up: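 grade of growth control; 5 = at least 90%; 4 = 70 to 90%; 3 = 50 to 70%; 2 = 30 to 50%; 1 = 10 to 30%; 0 = under 10%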; conditions: 100 g of the active ingredient per 10 ares, evaluated on the 14th day after treatment
Summary of the method: (§3)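 Greenhouse test, upland conditions: seeds sown in sand pots of 120 cm^2 area and overlaid with soil; 2 weeks growth; leaves treated; herbicidal injury graded on day 14 after treatment by fixed standards.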

barnyardgrass (Ec) [7] = assay: as above; set-up: scale not given here; conditions: 100 g of the active ingredient per 10 ares, evaluated on the 14th day after treatment
Summary of the method: as §3

[8] = tested on: common lambsquarters (Ch); assay: as above; set-up: scale not given here; conditions: 100 g of the active ingredient per 10 ares, evaluated on the 14th day after treatment
Summary of the method: as §3

pale smartweed (Po) [9] = assay: as above; set-up: scale not given here; conditions: 100 g of the active ingredient per 10 ares, evaluated on the 14th day after treatment
Summary of the method: as §3

rice flatsedge (Ci) [10] = assay: as above; set-up: scale not given here; conditions: 100 g of the active ingredient per 10 ares, evaluated on the 14th day after treatment
Summary of the method: as §3

slender amaranth (Am) [11] = assay: as above; set-up: scale not given here; conditions: 100 g of the active ingredient per 10 ares, evaluated on the 14th day after treatment
Summary of the method: as §3

cotton (Go) = assay: Test Example 4: crop plant selectivity by upland field soil treatment (cotton), phytotoxicity; set-up: scale not given here; conditions: dose 6.3 g ai/10 a, evaluated 21st day after application
Protocol: (§4) (Test on Crop Plant Selectivity by Upland Field Soil Treatment)
(§5) In a plastic pot (surface area: 600 cm^2) filled with sand, cotton (Go), Diaitaria ciliaris (Di), green foxtail (Se), pale smartweed (Po), slender amaranth (Am), common lambsquarters (Ch) and China jute (Ab) were sown and covered with soil. […] The plants were then cultured in a green house, and the evaluation of the herbicidal effects and phytotoxicity was conducted on the 21st day after the application in accordance with the standards as identified in Table 47. Symbol—represents “not tested”.

China jute (Ab) [12] = assay: Test Example 4: crop plant selectivity by upland field soil treatment (cotton), herbicidal effects; set-up: scale not given here; conditions: dose 6.3 g ai/10 a, evaluated 21st day after application
Protocol: as §4, §5

[13] = tested on: common lambsquarters (Ch); assay: as above; set-up: scale not given here; conditions: dose 6.3 g ai/10 a, evaluated 21st day after application
Protocol: as §4, §5

green foxtail (Se) [14] = assay: as above; set-up: scale not given here; conditions: dose 6.3 g ai/10 a, evaluated 21st day after application
Protocol: as §4, §5

pale smartweed (Po) [15] = assay: as above; set-up: scale not given here; conditions: dose 6.3 g ai/10 a, evaluated 21st day after application
Protocol: as §4, §5

slender amaranth (Am) [16] = assay: as above; set-up: scale not given here; conditions: dose 6.3 g ai/10 a, evaluated 21st day after application
Protocol: as §4, §5

wheat (Tr) = assay: Test Example 5: crop plant selectivity by upland field soil treatment (wheat), phytotoxicity; set-up: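 grade of crop injury; 5 = at least 90%; 4 = 70 to 90%; 3 = 50 to 70%; 2 = 30 to 50%; 1 = 10 to 30%; 0 = under 10%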; conditions: dose 6.3 g ai/10a, 21st day after application
Protocol: as §4
(§6) In a plastic pot (surface area: 600 cm^2) filled with sand, wheat (Tr), Diaitaria ciliaris (Di), green foxtail (Se), pale smartweed (Po), slender amaranth (Am), common lambsquarters (Ch) and China jute (Ab) were sown and covered with soil. […] The plants were then cultured in a green house, and the evaluation of the herbicidal effects and phytotoxicity was conducted on the 21st day after the application in accordance with the standards as identified in Table 47. Symbol—represents “not tested”.

China jute (Ab) [17] = assay: Test Example 5: crop plant selectivity by upland field soil treatment (wheat), herbicidal effects; set-up: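 grade of growth control; 5 = at least 90%; 4 = 70 to 90%; 3 = 50 to 70%; 2 = 30 to 50%; 1 = 10 to 30%; 0 = under 10%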; conditions: dose 6.3 g ai/10a, 21st day after application
Protocol: as §4, §6

[18] = tested on: common lambsquarters (Ch); assay: as above; set-up: scale not given here; conditions: dose 6.3 g ai/10a, 21st day after application
Protocol: as §4, §6

green foxtail (Se) [19] = assay: as above; set-up: scale not given here; conditions: dose 6.3 g ai/10a, 21st day after application
Protocol: as §4, §6

pale smartweed (Po) [20] = assay: as above; set-up: scale not given here; conditions: dose 6.3 g ai/10a, 21st day after application
Protocol: as §4, §6

slender amaranth (Am) [21] = assay: as above; set-up: scale not given here; conditions: dose 6.3 g ai/10a, 21st day after application
Protocol: as §4, §6

soybean (Gl) = assay: Test Example 6: crop plant selectivity by upland field soil treatment (soybean), phytotoxicity; set-up: scale not given here; conditions: dose 6.3 g ai/10a, 21st day after application
Protocol: as §4
(§7) In a plastic pot (surface area: 600 cm^2) filled with sand, soybean (Gl), Diaitaria ciliaris (Di), green foxtail (Se), Johnsongrass (So), pale smartweed (Po), slender amaranth (Am), common lambsquarters (Ch) and China jute (Ab) were sown and covered with soil. […] The plants were then cultured in a green house, and the evaluation of the herbicidal effects and phytotoxicity was conducted on the 21st day after the application in accordance with the standards as identified in Table 47. Symbol—represents “not tested”.

China jute (Ab) [22] = assay: Test Example 6: crop plant selectivity by upland field soil treatment (soybean), herbicidal effects; set-up: scale not given here; conditions: dose 6.3 g ai/10a, 21st day after application
Protocol: as §4, §7

[23] = tested on: common lambsquarters (Ch); assay: as above; set-up: scale not given here; conditions: dose 6.3 g ai/10a, 21st day after application
Protocol: as §4, §7

green foxtail (Se) [24] = assay: as above; set-up: scale not given here; conditions: dose 6.3 g ai/10a, 21st day after application
Protocol: as §4, §7

pale smartweed (Po) [25] = assay: as above; set-up: scale not given here; conditions: dose 6.3 g ai/10a, 21st day after application
Protocol: as §4, §7

slender amaranth (Am) [26] = assay: as above; set-up: scale not given here; conditions: dose 6.3 g ai/10a, 21st day after application
Protocol: as §4, §7

corn (Ze) = assay: Test Example 7: crop plant selectivity by upland field soil treatment (corn), phytotoxicity; set-up: scale not given here; conditions: dose 6.3 g ai/10a, 21st day after application
Protocol: as §4
(§8) In a plastic pot (surface area: 600 cm^2) filled with sand, corn (Ze), green foxtail (Se), pale smartweed (Po), slender amaranth (Am), common lambsquarters (Ch) and China jute (Ab) were sown and covered with soil. […] The plants were then cultured in a green house, and the evaluation of the herbicidal effects and phytotoxicity was conducted on the 21st day after the application in accordance with the standards as identified in Table 47.

China jute (Ab) [27] = assay: Test Example 7: crop plant selectivity by upland field soil treatment (corn), herbicidal effects; set-up: scale not given here; conditions: dose 6.3 g ai/10a, 21st day after application
Protocol: as §4, §8

[28] = tested on: common lambsquarters (Ch); assay: as above; set-up: scale not given here; conditions: dose 6.3 g ai/10a, 21st day after application
Protocol: as §4, §8

green foxtail (Se) [29] = assay: as above; set-up: scale not given here; conditions: dose 6.3 g ai/10a, 21st day after application
Protocol: as §4, §8

pale smartweed (Po) [30] = assay: as above; set-up: scale not given here; conditions: dose 6.3 g ai/10a, 21st day after application
Protocol: as §4, §8

slender amaranth (Am) [31] = assay: as above; set-up: scale not given here; conditions: dose 6.3 g ai/10a, 21st day after application
Protocol: as §4, §8

[32] = 21st day after the application, index 0-5 of Table 47
[33] = evaluated on the 21st day after application

With `CCC(C)Oc1cc(-c2ccc(C(F)(F)F)n(C)c2=O)c(F)cc1Cl` (stereo not drawn) [1-167] the “Herbicidal effects Ec” value (barnyardgrass (Ec) [1]) was 5, the “Herbicidal effects Sc” value (bulrush (Sc)) was 5 and the “Herbicidal effects Mo” value (monochoria (Mo)) was 5. For the same compound, the “Herbicidal effects Di” value (Digitaria ciliaris (Di); [32]) was 5, the “Herbicidal effects Ec” value (barnyardgrass (Ec) [2]; [32]) was 5 and the “Herbicidal effects Ch” value [3, 32] was 5. For the same compound, the “Herbicidal effects Po” value (pale smartweed (Po) [4]; [32]) was 5, the “Herbicidal effects Ci” value (rice flatsedge (Ci) [5]; [32]) was 5 and the “Herbicidal effects Am” value (slender amaranth (Am) [6]; [32]) was 5. The “Herbicidal effects Di” value (Diaitaria ciliaris (Di)) was 5, the “Herbicidal effects Ec” value (barnyardgrass (Ec) [7]) was 5 and the “Herbicidal effects Ch” value [8] was 5. For the same compound, the “Herbicidal effects Po” value (pale smartweed (Po) [9]) was 5, the “Herbicidal effects Ci” value (rice flatsedge (Ci) [10]) was 5 and the “Herbicidal effects Am” value (slender amaranth (Am) [11]) was 5. For the same compound, the “Phytotoxicity Go” value (cotton (Go)) was 1, the “Herbicidal effects Ab” value (China jute (Ab) [12]) was 5 and the “Herbicidal effects Ch” value [13] was 5. The “Herbicidal effects Se” value (green foxtail (Se) [14]) was 5, the “Herbicidal effects Po” value (pale smartweed (Po) [15]) was 5 and the “Herbicidal effects Am” value (slender amaranth (Am) [16]) was 5. For the same compound, the “Phytotoxicity Tr” value (wheat (Tr)) was 1, the “Herbicidal effects Ab” value (China jute (Ab) [17]) was 5 and the “Herbicidal effects Ch” value [18] was 5. For the same compound, the “Herbicidal effects Se” value (green foxtail (Se) [19]) was 5, the “Herbicidal effects Po” value (pale smartweed (Po) [20]) was 5 and the “Herbicidal effects Am” value (slender amaranth (Am) [21]) was 5. The “Phytotoxicity Gl” value (soybean (Gl)) was 1, the “Herbicidal effects Ab” value (China jute (Ab) [22]) was 5 and the “Herbicidal effects Ch” value [23] was 5. The “Herbicidal effects Se” value (green foxtail (Se) [24]) was 5, the “Herbicidal effects Po” value (pale smartweed (Po) [25]) was 5 and the “Herbicidal effects Am” value (slender amaranth (Am) [26]) was 5. The “Phytotoxicity Ze” value (corn (Ze)) was 0, the “Herbicidal effects Ab” value (China jute (Ab) [27]) was 5 and the “Herbicidal effects Ch” value [28] was 5. The “Herbicidal effects Se” value (green foxtail (Se) [29]) was 5, the “Herbicidal effects Po” value (pale smartweed (Po) [30]) was 5 and the “Herbicidal effects Am” value (slender amaranth (Am) [31]) was 5.
With `Cn1c(C(F)(F)F)ccc(-c2cc(OCC(F)F)c(Cl)cc2F)c1=O` [1-173] the “Herbicidal effects Ec” value (barnyardgrass (Ec) [1]) was 5, the “Herbicidal effects Sc” value (bulrush (Sc)) was 5 and the “Herbicidal effects Mo” value (monochoria (Mo)) was 5. For the same compound, the “Herbicidal effects Di” value (Digitaria ciliaris (Di); [33]) was 5, the “Herbicidal effects Ec” value (barnyardgrass (Ec) [2]; [33]) was 5 and the “Herbicidal effects Ch” value [3, 33] was 5. The “Herbicidal effects Po” value (pale smartweed (Po) [4]; [33]) was 5, the “Herbicidal effects Ci” value (rice flatsedge (Ci) [5]; [33]) was 5 and the “Herbicidal effects Am” value (slender amaranth (Am) [6]; [33]) was 5. For the same compound, the “Herbicidal effects Di” value (Diaitaria ciliaris (Di)) was 5, the “Herbicidal effects Ec” value (barnyardgrass (Ec) [7]) was 5 and the “Herbicidal effects Ch” value [8] was 5. For the same compound, the “Herbicidal effects Po” value (pale smartweed (Po) [9]) was 5, the “Herbicidal effects Ci” value (rice flatsedge (Ci) [10]) was 5 and the “Herbicidal effects Am” value (slender amaranth (Am) [11]) was 5. The “Phytotoxicity Go” value (cotton (Go)) was 1, the “Herbicidal effects Ab” value (China jute (Ab) [12]) was 5 and the “Herbicidal effects Ch” value [13] was 5. For the same compound, the “Herbicidal effects Se” value (green foxtail (Se) [14]) was 5, the “Herbicidal effects Po” value (pale smartweed (Po) [15]) was 5 and the “Herbicidal effects Am” value (slender amaranth (Am) [16]) was 5. For the same compound, the “Phytotoxicity Tr” value (wheat (Tr)) was 1, the “Herbicidal effects Ab” value (China jute (Ab) [17]) was 5 and the “Herbicidal effects Ch” value [18] was 5. For the same compound, the “Herbicidal effects Se” value (green foxtail (Se) [19]) was 5, the “Herbicidal effects Po” value (pale smartweed (Po) [20]) was 5 and the “Herbicidal effects Am” value (slender amaranth (Am) [21]) was 5. For the same compound, the “Phytotoxicity Gl” value (soybean (Gl)) was 1, the “Herbicidal effects Ab” value (China jute (Ab) [22]) was 5 and the “Herbicidal effects Ch” value [23] was 5. For the same compound, the “Herbicidal effects Se” value (green foxtail (Se) [24]) was 5, the “Herbicidal effects Po” value (pale smartweed (Po) [25]) was 5 and the “Herbicidal effects Am” value (slender amaranth (Am) [26]) was 5. The “Phytotoxicity Ze” value (corn (Ze)) was 1, the “Herbicidal effects Ab” value (China jute (Ab) [27]) was 5 and the “Herbicidal effects Ch” value [28] was 5. The “Herbicidal effects Se” value (green foxtail (Se) [29]) was 5, the “Herbicidal effects Po” value (pale smartweed (Po) [30]) was 5 and the “Herbicidal effects Am” value (slender amaranth (Am) [31]) was 5.
